According to publication PMC9582160, “Inhibition of MRGPRX2 but not FcεRI or MrgprB2-mediated mast cell degranulation by a small molecule inverse receptor agonist” (Frontiers in Immunology, 2022):

Molecular target: T1, MrgprB2 (Mus musculus, UniProt Q3KNA1)
T1 construct: endogenous receptor in mouse peritoneal mast cells
T1 sequence (Q3KNA1 1-338): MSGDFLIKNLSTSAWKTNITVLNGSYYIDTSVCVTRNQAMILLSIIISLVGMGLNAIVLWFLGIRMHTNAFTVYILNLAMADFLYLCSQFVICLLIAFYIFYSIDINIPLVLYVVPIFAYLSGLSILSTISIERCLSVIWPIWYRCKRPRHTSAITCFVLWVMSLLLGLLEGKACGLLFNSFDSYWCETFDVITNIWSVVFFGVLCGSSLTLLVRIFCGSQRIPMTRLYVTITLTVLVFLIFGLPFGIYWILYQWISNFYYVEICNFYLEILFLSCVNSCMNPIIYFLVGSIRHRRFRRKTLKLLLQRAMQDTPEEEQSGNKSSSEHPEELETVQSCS
Experiment: agonist: β-hexosaminidase release in WT peritoneal mast cells at […], absent in MrgprB2-/- cells
Format: cell-based

## C=CC[N+]1([C@H]2C[C@H]3[C@@H]4CC[C@H]5C[C@H](O)[C@@H](N6CCOCC6)C[C@]5(C)[C@H]4CC[C@]3(C)[C@H]2OC(C)=O)CCCC1 [rocuronium]
  agonist: β-hexosaminidase release in WT peritoneal mast cells at 20 μg/ml, absen: mediated via MrgprB2 by demonstrating that PMCs cultured from MrgprB2^−/− mice do not respond to these agonists
